One may read the IC50 as the concentration at which inhibition is half-maximal. In general, solubility refers to how much of the substance goes into solution per volume. Low values mean little dissolved substance, high ones much dissolved substance.

The results in this text go back to ChEMBL document CHEMBL1140740, “Discovery of benzisoxazoles as potent inhibitors of chaperone heat shock protein 90” (J Med Chem, 2008).

Series [1] concerns the target Heat shock protein HSP 90-alpha (Homo sapiens, UniProt P07900).
Description: Inhibition of human Hsp90-alpha by fluorescence polarization assay
In series [2] the test system is SK-BR-3. Kind of series: Degradation of HER2 in human SKBR3 cells. The format is functional, cell-based.
The target of series [3] is Serine/threonine-protein kinase mTOR (Homo sapiens, UniProt P42345). Kind of series: Inhibition of mTOR.
In series [4] the target is Protein kinase C theta type (Homo sapiens, UniProt Q04759). Kind of series: Inhibition of PKC theta.
The test system of series [5] is K562. Kind of series: Upregulation of Hsp70 in K562 cells. To be noted: Homo sapiens. The format is functional, cell-based.
Series [6] deals with SK-BR-3. Kind of series: Antiproliferation activity against human SKBR3 cells. The format is functional, cell-based.
Series [7] addresses Serine/threonine-protein kinase B-raf (Homo sapiens, UniProt P15056). Kind of series: Inhibition of B-Raf.
Series [8] has as its target T1, Protein kinase C epsilon type (Homo sapiens, UniProt Q02156).
T1 sequence (Q02156 whole entry): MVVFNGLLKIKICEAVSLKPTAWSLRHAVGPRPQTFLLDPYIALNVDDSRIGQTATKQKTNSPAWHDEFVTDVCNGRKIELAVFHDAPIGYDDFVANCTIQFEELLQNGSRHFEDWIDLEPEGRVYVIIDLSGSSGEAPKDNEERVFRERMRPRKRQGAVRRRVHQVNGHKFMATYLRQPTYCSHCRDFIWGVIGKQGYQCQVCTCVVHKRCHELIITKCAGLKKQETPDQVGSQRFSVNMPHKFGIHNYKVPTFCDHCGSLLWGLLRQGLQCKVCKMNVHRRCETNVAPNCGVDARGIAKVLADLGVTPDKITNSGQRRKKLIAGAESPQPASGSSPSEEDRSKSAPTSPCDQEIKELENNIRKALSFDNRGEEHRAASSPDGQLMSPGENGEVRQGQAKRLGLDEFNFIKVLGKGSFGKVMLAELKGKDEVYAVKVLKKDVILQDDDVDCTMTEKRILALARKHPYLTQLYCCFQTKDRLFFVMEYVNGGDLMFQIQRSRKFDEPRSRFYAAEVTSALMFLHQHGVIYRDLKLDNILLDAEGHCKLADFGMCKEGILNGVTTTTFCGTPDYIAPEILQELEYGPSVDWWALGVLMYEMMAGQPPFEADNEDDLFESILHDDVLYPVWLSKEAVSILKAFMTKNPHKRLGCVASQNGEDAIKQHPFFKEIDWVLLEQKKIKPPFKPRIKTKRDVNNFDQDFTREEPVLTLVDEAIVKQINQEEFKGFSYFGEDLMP
Kind of series: Inhibition of PKC epsilon.

Series [9] concerns K562. Kind of series: Downregulation of Bcr-Abl in human K562 cells. The format is functional, cell-based.
Series [10] deals with LNCaP. Kind of series: Antiproliferation activity against human LnCap cells. It is filed as functional, cell-based.
Series [11] addresses T2, Inhibitor of nuclear factor kappa-B kinase subunit beta (Homo sapiens, UniProt O14920).
T2 sequence (O14920 whole entry): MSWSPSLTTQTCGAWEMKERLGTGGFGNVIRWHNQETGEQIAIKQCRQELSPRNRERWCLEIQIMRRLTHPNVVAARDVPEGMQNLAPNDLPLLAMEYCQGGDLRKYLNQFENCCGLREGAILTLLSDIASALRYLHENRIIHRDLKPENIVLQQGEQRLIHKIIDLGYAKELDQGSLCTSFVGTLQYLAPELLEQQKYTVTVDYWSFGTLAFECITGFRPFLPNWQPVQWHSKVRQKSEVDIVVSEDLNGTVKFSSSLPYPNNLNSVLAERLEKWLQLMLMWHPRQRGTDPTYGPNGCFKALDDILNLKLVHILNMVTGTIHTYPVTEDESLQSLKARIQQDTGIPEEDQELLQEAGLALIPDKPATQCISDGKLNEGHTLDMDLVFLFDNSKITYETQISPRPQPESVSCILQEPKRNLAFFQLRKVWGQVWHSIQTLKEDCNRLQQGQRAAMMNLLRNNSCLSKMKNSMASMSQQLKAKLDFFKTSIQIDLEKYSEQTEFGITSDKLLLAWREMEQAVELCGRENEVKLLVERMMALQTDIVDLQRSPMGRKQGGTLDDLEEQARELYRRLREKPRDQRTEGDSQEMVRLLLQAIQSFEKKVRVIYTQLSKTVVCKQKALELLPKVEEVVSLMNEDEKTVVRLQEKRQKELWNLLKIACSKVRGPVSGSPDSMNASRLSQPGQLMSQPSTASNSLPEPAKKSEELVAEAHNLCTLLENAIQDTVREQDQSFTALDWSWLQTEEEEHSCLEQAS
Kind of series: Inhibition of IKK2.

In series [12] the target is Activin receptor type-2B (Homo sapiens, UniProt Q13705). Kind of series: Inhibition of ActR2B.
Series [13] relates to K562. Kind of series: Degradation of actin in human K562 cells. The format is functional, cell-based.
In series [14] the target is MAP kinase-activated protein kinase 2 (Homo sapiens, UniProt P49137). Kind of series: Inhibition of MK2.
A short description of series [15]: Antiproliferation activity against human H157 cells. The format is functional, cell-based. To be noted: NCI-H157.
Series [16] deals with Phosphatidylinositol 4,5-bisphosphate 3-kinase catalytic subunit alpha isoform (Homo sapiens, UniProt P42336). Kind of series: Inhibition of P13K alpha.
For series [17], the system named is DU-145. Kind of series: Antiproliferation activity against human DU145 cells. The format is functional, cell-based.
Series [18] concerns HCT-116. Kind of series: Antiproliferation activity against human HCT116 cells in presence of geldanamycin. The format is functional, cell-based.
The subject of series [19] is HCT-116. Kind of series: Antiproliferation activity against human HCT116 cells. It is filed as functional, cell-based.
Series [20] concerns LNCaP. Kind of series: Androgen receptor degradation in human LnCAP cells. It is filed as functional, cell-based.
A short description of series [21]: Aqueous solubility at pH 7.4. The format is physicochemical.
Series [22] concerns HCT-116. Kind of series: Antiproliferation activity against human HCT116 cells.

Molecules are shown by their SMILES. Converted amounts (≈) assume the structure as drawn. The source made the active and inactive calls. No cut-off for these calls is given here. Bounds are passed on as bounds.

Chain of Protein kinase C theta type (Q04759 whole entry): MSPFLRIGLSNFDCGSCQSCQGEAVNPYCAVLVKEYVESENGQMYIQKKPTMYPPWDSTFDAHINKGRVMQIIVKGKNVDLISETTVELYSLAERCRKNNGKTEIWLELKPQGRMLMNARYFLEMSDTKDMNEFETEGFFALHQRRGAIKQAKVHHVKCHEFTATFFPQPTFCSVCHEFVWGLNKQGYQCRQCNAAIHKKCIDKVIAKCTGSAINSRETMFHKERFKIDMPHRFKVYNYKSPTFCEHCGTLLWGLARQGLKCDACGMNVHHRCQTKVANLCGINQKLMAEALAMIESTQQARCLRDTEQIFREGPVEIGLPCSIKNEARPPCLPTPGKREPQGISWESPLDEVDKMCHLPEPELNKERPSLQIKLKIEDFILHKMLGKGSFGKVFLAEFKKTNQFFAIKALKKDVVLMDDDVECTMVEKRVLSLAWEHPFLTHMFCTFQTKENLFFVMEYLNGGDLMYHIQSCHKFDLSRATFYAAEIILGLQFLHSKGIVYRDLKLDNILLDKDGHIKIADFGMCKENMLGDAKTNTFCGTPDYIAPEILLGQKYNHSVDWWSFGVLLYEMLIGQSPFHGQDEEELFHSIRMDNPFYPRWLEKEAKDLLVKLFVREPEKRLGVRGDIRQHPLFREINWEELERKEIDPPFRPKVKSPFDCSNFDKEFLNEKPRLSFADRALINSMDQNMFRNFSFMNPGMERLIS
Chain of Serine/threonine-protein kinase B-raf (P15056 whole entry): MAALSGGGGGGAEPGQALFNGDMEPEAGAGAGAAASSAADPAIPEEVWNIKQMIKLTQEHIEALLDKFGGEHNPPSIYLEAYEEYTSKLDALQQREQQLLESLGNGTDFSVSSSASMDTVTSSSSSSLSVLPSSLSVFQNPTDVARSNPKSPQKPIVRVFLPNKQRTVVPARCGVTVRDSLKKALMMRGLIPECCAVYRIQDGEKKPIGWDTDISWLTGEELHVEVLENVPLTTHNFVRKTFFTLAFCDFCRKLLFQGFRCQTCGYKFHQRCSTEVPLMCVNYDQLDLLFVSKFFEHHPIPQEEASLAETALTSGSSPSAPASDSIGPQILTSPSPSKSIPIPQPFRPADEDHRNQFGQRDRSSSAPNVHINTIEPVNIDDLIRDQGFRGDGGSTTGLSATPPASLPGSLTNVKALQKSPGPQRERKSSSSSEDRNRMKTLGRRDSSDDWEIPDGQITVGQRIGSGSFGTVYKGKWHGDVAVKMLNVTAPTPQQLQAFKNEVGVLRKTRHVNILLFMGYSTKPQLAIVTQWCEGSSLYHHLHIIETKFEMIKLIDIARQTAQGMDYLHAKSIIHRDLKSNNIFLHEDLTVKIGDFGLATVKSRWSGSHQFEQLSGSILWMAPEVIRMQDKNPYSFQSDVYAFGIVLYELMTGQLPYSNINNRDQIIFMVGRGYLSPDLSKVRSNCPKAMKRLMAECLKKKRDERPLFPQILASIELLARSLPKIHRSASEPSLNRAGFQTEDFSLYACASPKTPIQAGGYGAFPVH
Chain of Activin receptor type-2B (Q13705 whole entry): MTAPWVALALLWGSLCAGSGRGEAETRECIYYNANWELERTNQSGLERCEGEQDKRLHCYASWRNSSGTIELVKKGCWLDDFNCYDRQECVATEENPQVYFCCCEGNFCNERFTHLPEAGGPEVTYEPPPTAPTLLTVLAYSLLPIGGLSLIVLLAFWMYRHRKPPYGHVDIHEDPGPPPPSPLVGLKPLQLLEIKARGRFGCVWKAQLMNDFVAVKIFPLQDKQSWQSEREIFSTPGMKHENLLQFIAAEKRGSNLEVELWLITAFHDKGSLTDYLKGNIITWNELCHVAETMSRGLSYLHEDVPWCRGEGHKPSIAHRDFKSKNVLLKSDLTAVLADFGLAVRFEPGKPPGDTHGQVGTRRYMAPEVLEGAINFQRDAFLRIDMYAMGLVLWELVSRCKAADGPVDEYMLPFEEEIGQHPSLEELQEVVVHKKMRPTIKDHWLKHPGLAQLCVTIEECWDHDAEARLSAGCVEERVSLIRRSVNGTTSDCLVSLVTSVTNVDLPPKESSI
Chain of Phosphatidylinositol 4,5-bisphosphate 3-kinase catalytic subunit alpha isoform (P42336 whole entry, canonical isoform): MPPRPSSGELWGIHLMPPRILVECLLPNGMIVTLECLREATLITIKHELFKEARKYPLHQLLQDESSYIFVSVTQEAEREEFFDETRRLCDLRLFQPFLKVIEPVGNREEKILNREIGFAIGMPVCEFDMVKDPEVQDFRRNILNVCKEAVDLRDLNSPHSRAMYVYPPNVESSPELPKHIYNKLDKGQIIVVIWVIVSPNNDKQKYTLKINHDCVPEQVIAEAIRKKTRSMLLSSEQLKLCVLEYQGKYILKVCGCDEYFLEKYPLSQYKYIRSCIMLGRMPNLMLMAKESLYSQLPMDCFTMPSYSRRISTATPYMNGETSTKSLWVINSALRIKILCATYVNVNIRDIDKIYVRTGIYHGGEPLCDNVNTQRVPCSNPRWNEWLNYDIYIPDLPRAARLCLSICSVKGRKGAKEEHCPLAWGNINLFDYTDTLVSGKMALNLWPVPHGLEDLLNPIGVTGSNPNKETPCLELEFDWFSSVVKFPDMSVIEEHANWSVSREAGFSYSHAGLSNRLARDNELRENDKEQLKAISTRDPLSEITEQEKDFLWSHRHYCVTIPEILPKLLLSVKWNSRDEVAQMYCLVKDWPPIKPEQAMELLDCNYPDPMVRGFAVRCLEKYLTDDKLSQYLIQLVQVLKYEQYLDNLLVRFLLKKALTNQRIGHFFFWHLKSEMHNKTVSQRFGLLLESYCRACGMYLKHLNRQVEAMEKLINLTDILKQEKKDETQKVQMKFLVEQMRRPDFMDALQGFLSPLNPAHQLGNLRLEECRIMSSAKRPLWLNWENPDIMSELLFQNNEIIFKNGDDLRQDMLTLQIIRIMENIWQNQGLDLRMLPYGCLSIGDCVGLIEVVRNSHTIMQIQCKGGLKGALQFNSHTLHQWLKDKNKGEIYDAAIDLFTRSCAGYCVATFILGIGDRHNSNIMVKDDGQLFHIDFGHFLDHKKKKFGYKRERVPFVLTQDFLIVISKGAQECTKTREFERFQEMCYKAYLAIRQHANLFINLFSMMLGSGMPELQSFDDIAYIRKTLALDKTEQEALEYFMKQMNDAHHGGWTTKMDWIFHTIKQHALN
Chain of MAP kinase-activated protein kinase 2 (P49137 whole entry): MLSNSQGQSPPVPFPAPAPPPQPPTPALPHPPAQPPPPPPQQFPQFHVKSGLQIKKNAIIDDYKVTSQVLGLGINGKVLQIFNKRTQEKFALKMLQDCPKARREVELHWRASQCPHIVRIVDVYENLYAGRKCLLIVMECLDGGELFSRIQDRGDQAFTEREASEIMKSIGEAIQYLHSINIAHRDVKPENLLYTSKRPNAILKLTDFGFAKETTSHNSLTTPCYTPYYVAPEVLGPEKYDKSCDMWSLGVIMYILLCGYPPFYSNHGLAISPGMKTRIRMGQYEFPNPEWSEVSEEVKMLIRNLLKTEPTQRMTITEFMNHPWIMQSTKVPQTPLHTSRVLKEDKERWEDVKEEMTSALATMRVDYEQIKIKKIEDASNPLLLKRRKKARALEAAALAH

Take `COc1cc(OC)c(-c2noc3ccc(NCCN4CCOCC4)cc23)cc1Cl`: the IC50 in series [1] was greater than 20 µM.

For `Oc1cc(O)c(-c2noc3ccc(NCCN4CCOCC4)cc23)cc1Cl`, the IC50 in series [2] was 0.33 µM; in series [3], greater than 20 µM; in series [4] it was greater than 20 µM; in series [6] it was 0.37 µM; in series [7], greater than 20 µM; in series [8], greater than 20 µM. Moreover, the IC50 in series [10] is 0.17 µM; in [11] it was greater than 20 µM; in [12], greater than 20 µM; in [14], greater than 20 µM; in series [15], 0.23 µM; in [16], greater than 20 µM. The IC50 in [17] amounted to 0.29 µM; in series [18] it was 0.05 µM; in [19] it was 0.28 µM; in [20], 0.33 µM. For the same compound, the outcome in [5] and in series [9] was Active. In addition, the result in [13] was inactive.

On to `Oc1ccc2c(-c3cc(Br)c(O)cc3O)noc2c1`, for which the half-inhibitory concentration (IC50) in series [2] and in series [22] was no less than 20 µM each time. For the same compound, in series [21], the concentration in solution (solubility) came to 4 µg/mL (≈ 12.4 µM).

In turn, `Oc1cc(O)c(-c2noc3ccc(NCCN4CCOCC4)cc23)cc1Br` showed an IC50 in series [1] of 0.04 µM.

Turning to `Oc1ccc2c(-c3cc(Cl)c(O)cc3O)noc2c1`, the IC50 in series [1] was determined as 0.06 µM.

Turning to `CN1CCN(c2ccc3onc(-c4cc(Cl)c(O)cc4O)c3c2)CC1`, the IC50 in series [1] is 0.8 µM; in series [19], 9.4 µM.

The compound `Oc1ccc(-c2noc3cc(O)ccc23)c(O)c1` displayed an IC50 in [1] of 15.2 µM.

Regarding `COc1ccc2c(-c3cc(Cl)c(OC)cc3OC)noc2c1`, in series [1], the IC50 was greater than 20 µM.
